From patent EP0494754A1, “3-hydroxypyridin-4-one derivatives as pharmaceutical compositions” (BRITISH TECHNOLOGY GROUP LTD, priority 1991, dated 1992)
Read-outs that look alike come from different tables or passages of the source.

Assays:
Format in all cases: cell-based
P. falciparum [1] = experiment: Inhibition of growth of P. falciparum in red cell culture (tritiated hypoxanthine uptake, continuous exposure to chelator); conditions: for minimal effective concentration: Plasmodium falciparum, further study, method not detailed, read-out: dosage level at which marked growth inhibition was observed; for level of activity against red blood cells parasitized by P. falciparum (relative ranking): comparison between compounds, no figures; for growth inhibition of P. falciparum: 50 µmol/l iron binding concentration, after 30 hours, Figure 2; for percentage inhibition of growth after 30 hours as compared with the controls: iron binding concentration of 100 µmol of iron per litre, Figure 1
Method: (A) An uncloned strain of P. falciparum, ITO4, was grown on blood group O red cells using a modification of the method described by Trager et al in Science, 1976, […], 673. An atmopshere consisting of 1% oxygen, 3% carbon dioxide and 96% nitrogen was maintained throughout the experiments. Red cells were suspended at a hematocrit of 3% in RPMI 1640 that had been supplemented with 10% v/v human serum, 2 g/l glucose, 4 mM NaOH, 25 µg/ml gentamicin, 1.9 mM glutamine and 25 mM HEPES to form complete medium. For experimental purposes the red cells were then further diluted with the same medium to a final hematocrit of 1.5%. Synchronised parasite cultures were obtained using a combination of sorbitol lysis and gelatin flotation, as described respectively by Jensen et al in Am. J. Trop. Med. Hyg., 1978, 27, 1274 and Lambros et al in J. Parasitol., 1979, 65, 418, thus ensuring that only young ring forms remained. The starting parasitemia in each experiment was between 0.1 and 0.5%.
A red cell suspension containing only recently synchronised ring parasites was treated with 0.2 µCi of tritiated hypoxanthine per 100 µl of red cell suspension and one of ten chelating agents as identified in the Table was added in complete medium to the suspension in an amount such as to produce an iron binding concentration of 100 µmol of iron per litre (all of the chelators combine with iron in a ratio of 3 moles of chelator:1 mole of iron apart from the chelator number 10, desferrioxamine, which combines in a 1:1 molar ratio). The test cultures were immediately dispersed in 200 µl aliquots into 96 well microculture plates. Each chelator was tested in three or more wells and the whole experiment was carried out at least twice for each chelator. Control cultures were used in each experiment which contained no iron chelator.
The growth of the P. falciparum parasites was assessed both by light microscopy examination of thin films that had been stained with Giemsa and through measurement of tritiated hypoxanthine uptake, the cell cultures being harvested onto glass fibre filters and radioactivity, in terms of beta emission from each well, being measured in a flat bed liquid scintillation counter as described by Potter et al in Phys. Med. Biol., 1986, 31(4), 361.
The chelators tested consisted of 1-(2′-carboxyethyl)-3-hydroxy-2-methylpyridin-4-one (R₁ = CH₂CH₂CO₂H, R₂ = CH₃, R₃ = R₄ = H; compound 1) and, for the purposes of comparison with this chelator, nine other chelators not of formula (I) as defined hereinbefore, of which compounds 2 to 9 are 3-hydroxypyridin-4-ones and compound 10 is desferrioxamine. […] These findings were supported by a morphological examination of red cells sampled from the cultures. […] (B) The effect of using different dosage levels than the 100 µmol/l level used in (A) was studied employing the same procedure but using four dosage levels of 10 µmol/l, 25 µmol/l, 50 µmol/l and […]. Only the eight chelators which produced an inhibitory effect at 100 µmol/l were studied and controls containing no iron chelator were again employed.

P. falciparum [2] = experiment: 6 hour pulse exposure at different stages of the first parasite cycle, growth by tritiated hypoxanthine uptake; design: dose or concentration left out as unconfirmed; conditions: Plasmodium falciparum
Method: In the case of 2-carboxymethyl-3-hydroxy-1-methylpyridin-4-one, 1-(2-carboxyethyl)-2-ethyl-3-hydroxypyridin-4-one and 1-(3-carboxypropyl)-2-methyl-3-hydroxypyridin-4-one a dosage level of 0.5 µmol/l was required to produce a similar level of growth inhibition and in the case of 3-hydroxy-2-methyl-1-(2-sulphoethyl)pyridin-4-one a dosage level of 1 µmol/l was required. (C) A culture of ring parasites obtained as in (A) was dispensed in 3 ml volumes into separate flasks. Different cultures were exposed during a 6 hour period to the compound 1 in a 100 µmol/l iron binding concentration at different stages during the first parasite cycle and controls containing no chelator were again employed. At the end of each 6 hour pulse, all cultures were washed twice in RPMI 1640 and the pellet was resuspended in complete medium. At 40 hours, when cells from cultures that had not been exposed at any time to a chelator contained segmenting schizonts, tritiated hypoxanthine was added to the incubation medium of all the cultures. Growth of the parasites was assessed after further periods of 42 hours (during second cycle), 65 hours (during third cycle) and 84 hours (during fourth cycle). Each pulse of compound 1 was duplicated in separate flasks. Morphologically, synchrony of the cultures was clearly lost during the third parasite cycle.
Furthermore, no morphological differences were detected between parasites that were sampled from these cultures and untreated parasites. On the other hand, incubation with compound 1 during the schizont stage (24-30 hours) of parasite development did produce an inhibitory effect on the growth of P. falciparum resulting in 38% and 30% growth inhibition during the second and third cycles. Morphologically these cultures contained a mixed population of degenerate forms and young ring parasites with evidence of red cell reinvasion. Thus it will be seen that the effect of compound 1 is maximised during the early schizont stage of the development of the parasite. However, the employment of 6 hour pulses in order to compare the effects of the compound at different stages, as opposed to the continuous treatment employed in (A), did lead to a lower level of anti-malarial effect.

MEL cells, clone 585 = experiment: Inhibition of growth of murine erythroleukaemia (MEL) cells, cell counting; conditions: 50 µmol/l iron binding concentration; after 30 hours; Figure 2
Method: MEL cells, clone 585, were grown in suspension culture at 37°C in RPMI 1640 that had been supplemented with 13% v/v foetal calf serum, 25 µl/ml gentamicin, 1.9 mM glutamine and 2% diaminopurine as described by Peto et al in Br. J. Haematol., 1983, 54, 623. The cultures were maintained in an atmosphere containing 5% carbon dioxide and passaged every 3-4 days at a seeding concentration of 1-2 x 10⁴/ml to ensure that the cells were continually in logarithmic growth phase. Under these conditions, the doubling time for cell growth was 30-36 hours.
10 ml volumes of cell suspension were incubated in 50 ml flasks with each of the ten chelators identified in the Table at a 50 µmol/l iron binding concentration, controls being employed which contained no chelator. 400 µl aliquots were removed in duplicate for growth assessment at 24 hour intervals over the next four days. The experiment was repeated on three separate occasions, the initial cell concentration in each case being 2-3 x 10⁴ cells/ml. Cell growth was assessed both by examination of cultures using light microscopy and by cell counting. At various times throughout each experiment, 400 µl culture was added to 19.6 ml Isoton and the number of particles counted using a Coulter Counter ZN set at threshold 20 and attenuation 0.4
The effect of the different chelators on growth of the MEL cells after 30 hours was compared with the effect produced after a similar time by the same chelators at a 50 µmol/l iron binding concentration using the procedure described in Example 2(A). The results are illustrated in Figure 2. It will be seen that the compounds 2, 3, 4, 5, 6, 9 and 10 inhibited growth of MEL cells and of P. falciparum, the minimum growth inhibition being 80% and 70% respectively. […] When these two groups of chelators were examined together a close linear correlation (r = 0.978) was found between the degree of growth inhibition produced in both types of cell for each chelator studied. The compound 1 was distinguished from all of the other chelators in being the only one to have no significant inhibitory effect on the growth of MEL cells (<10%) whilst at the same time producing a substantial inhibitory effect on the growth of P. falciparum (>75%).

Row | Compound | minimal effective concentration (P. falciparum [1]) | growth inhibition of P. falciparum (P. falciparum [1]) | percentage inhibition of growth after 30 hours as compared with the controls (P. falciparum [1]) | growth inhibition of MEL cells (MEL cells, clone 585) | also measured
1 | Cc1c(O)c(=O)ccn1CCS(=O)(=O)O [3-hydroxy-2-methyl-1-(2-sulphoethyl)-pyridin-4-one] | 1 µM | – | – | – | –
2 | Cn1ccc(=O)c(O)c1CC(=O)O [(5), 2-carboxymethyl-3-hydroxy-1-methylpyridin-4-one] | 0.5 µM | – | – | – | –
3 | CCc1c(O)c(=O)ccn1CCC(=O)O [(12), 1-(2-carboxyethyl)-2-ethyl-3-hydroxypyridin-4-one] | 0.5 µM | – | – | – | level of activity against red blood cells parasitized by P. falciparum (relative ranking) (P. falciparum [1]): higher level of activity than compound (9)
4 | Cc1c(O)c(=O)ccn1CCCC(=O)O [(16), 1-(3-carboxypropyl)-2-methyl-3-hydroxypyridin-4-one] | 0.5 µM | – | – | – | level of activity against red blood cells parasitized by P. falciparum (relative ranking) (P. falciparum [1]): higher level of activity than compound (9)
5 | Cc1c(O)c(=O)ccn1CCC(=O)O [compound 1, 1-(2-carboxyethyl)-3-hydroxy-2-methylpyridin-4-one] | 0.1 µM | > 75% | more than 65% | < 10% | level of activity against red blood cells parasitized by P. falciparum (relative ranking) (P. falciparum [1]): higher level of activity against red blood cells parasitized by P. falciparum than compounds (12) and (16); inhibition (P. falciparum [2]; 6 hour pulse at 6-12 hours of first cycle, read-out: growth inhibition during the third cycle): 0%; inhibition (P. falciparum [2]; 6 hour pulse at 12-18 hours of first cycle, read-out: growth inhibition during the second cycle): 11.4%; inhibition (P. falciparum [2]; 6 hour pulse at 12-18 hours of first cycle, read-out: growth inhibition during the third cycle): 12%; inhibition (P. falciparum [2]; 6 hour pulse at 18-24 hours of first cycle, read-out: growth inhibition during the second cycle): 0%; inhibition (P. falciparum [2]; 6 hour pulse at 18-24 hours of first cycle, read-out: growth inhibition during the third cycle): 0%; inhibition (P. falciparum [2]; 6 hour pulse during the schizont stage (24-30 hours), read-out: growth inhibition during the second cycle): 38%; inhibition (P. falciparum [2]; 6 hour pulse during the schizont stage (24-30 hours), read-out: growth inhibition during the third cycle): 30%
6 | Cc1c(O)c(=O)ccn1C [compound 2, 3-hydroxy-1,2-dimethylpyridin-4-one] | – | ≥ 70% | more than 65% | ≥ 80% | –
7 | CC1=NC=CC(=O)C1O (stereo not shown) [compound 3, 3-hydroxy-2-methylpyridin-4-one] | – | ≥ 70% | more than 65% | ≥ 80% | –
8 | Cc1c(O)c(=O)ccn1CCO [compound 4, 3-hydroxy-1-(2-hydroxyethyl)-2-methylpyridin-4-one] | – | ≥ 70% | more than 65% | ≥ 80% | –
9 | Cc1c(O)c(=O)ccn1CCN.Cl [compound 5, 1-(2-aminoethyl)-3-hydroxy-2-methylpyridin-4-one hydrochloride] | – | ≥ 70% | more than 65% | ≥ 80% | –
10 | COCCn1ccc(=O)c(O)c1C [compound 6, 3-hydroxy-1-(2-methoxyethyl)-2-methylpyridin-4-one] | – | ≥ 70% | more than 65% | ≥ 80% | –
11 | Cc1c(O)c(=O)ccn1CCCCCC(=O)O [compound 7, 1-(5-carboxypentyl)-3-hydroxy-2-methylpyridin-4-one] | – | little inhibitory effect | less than 12% | little inhibitory effect | –
12 | Cc1c(O)c(=O)ccn1CCCCCC(=O)NCCC(=O)O [compound 8, 1-(5-(N-(2-carboxyethyl)-carbamoyl)pentyl)-3-hydroxy-2-methylpyridin-4-one] | – | little inhibitory effect | less than 12% | little inhibitory effect | –
13 | CCc1c(O)c(=O)ccn1C [compound 9, 2-ethyl-3-hydroxy-1-methyl-pyridin-4-one] | – | ≥ 70% | more than 65% | ≥ 80% | –
14 | Cc1c(O)c(=O)ccn1CC(=O)O [compound (9), 1-carboxymethyl-3-hydroxy-2-methylpyridin-4-one] | – | – | – | – | level of activity against red blood cells parasitized by P. falciparum (relative ranking) (P. falciparum [1]): somewhat greater than that of the compound 3-hydroxy-2-methyl-1-(2-sulphoethyl)pyridin-4-one
